The record followed here is patent publication US10351575B2, “Bicyclic urea, thiourea, guanidine and cyanoguanidine compounds useful for the treatment of pain” (Array BioPharma Inc., priority 2012, dated 2019).

Bounds are passed on as bounds.

Sequence of His-tagged recombinant human TrkA (P04629 440-796): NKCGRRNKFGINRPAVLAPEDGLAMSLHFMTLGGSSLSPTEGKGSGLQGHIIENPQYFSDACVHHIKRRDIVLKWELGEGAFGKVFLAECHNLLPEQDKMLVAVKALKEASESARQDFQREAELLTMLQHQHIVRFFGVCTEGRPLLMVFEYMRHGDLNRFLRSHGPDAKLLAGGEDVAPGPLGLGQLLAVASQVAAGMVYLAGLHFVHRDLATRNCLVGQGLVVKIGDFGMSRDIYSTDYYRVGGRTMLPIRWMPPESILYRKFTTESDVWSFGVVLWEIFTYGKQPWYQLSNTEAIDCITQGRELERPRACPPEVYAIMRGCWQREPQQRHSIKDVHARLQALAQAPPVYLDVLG

This assay addresses His-tagged recombinant human TrkA (Homo sapiens (Human), UniProt P04629). Put plainly: TrkA LanthaScreen Eu Kinase Binding Assay. Particulars: averaged IC50; TR-FRET binding, 60 min, 22° C.; read-out: TrkA Enzyme IC50. In a few lines: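 Three-fold compound dilutions (2% DMSO final) were incubated 60 min at 22° C. with 5 nM His-TrkA cytoplasmic domain, tracer 236 (4 nM), biotinylated anti-His (2 nM) and europium streptavidin (2 nM) in MOPS pH 7.5 buffer. Emission ratio 665/615 gave percent of control; four-parameter fit yielded IC50.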
For orientation: In TR-FRET formats the signal depends on donor and acceptor labels being close together.
On to `Cc1c(-c2ccc(=O)n(C)c2)nn(-c2ccccc2)c1NC(=O)N[C@@H]1c2cc(F)c(F)cc2C(C)(C)C[C@H]1O` [Example 83, 1-((1,2-trans)-6,7-difluoro-2-hydroxy-4,4-dimethyl-1,2,3,4-tetrahydronaphthalen-1-yl)-3-(4-methyl-3-(1-methyl-6-oxo-1,6-dihydropyridin-3-yl)-1-phenyl-1H-pyrazol-5-yl)urea], for which the IC50 (as a rule, the concentration that inhibits the measured activity by half) is below 0.1 µM. As to `Cc1ncc(-c2nn(-c3ccccc3)c(NC(=O)N[C@@H]3c4cc(F)c(F)cc4C(C)(C)C[C@H]3O)c2C)cn1` [Example 84, 1-((1,2-trans)-6,7-difluoro-2-hydroxy-4,4-dimethyl-1,2,3,4-tetrahydronaphthalen-1-yl)-3-(4-methyl-3-(2-methylpyrimidin-5-yl)-1-phenyl-1H-pyrazol-5-yl)urea], the half-maximal inhibitory concentration (IC50) is below 0.1 µM. As for `CNC(=O)c1nn(-c2ccccc2)c(NC(=O)N[C@@H]2c3ccccc3C(C)(C)[C@@H](OC)[C@H]2O)c1C` [Example 85, 5-(3-((r-1,t-2,t-3)-2-hydroxy-3-methoxy-4,4-dimethyl-1,2,3,4-tetrahydronaphthalen-1-yl)ureido)-N,4-dimethyl-1-phenyl-1H-pyrazole-3-carboxamide], the figure is below 0.1 µM; as for `CO[C@H]1[C@@H](O)[C@H](NC(=O)Nc2c(C)c(-c3cnn(C)c3)nn2-c2ccccc2)c2ccccc2C1(C)C` [Example 86, 1-(1′,4-dimethyl-1-phenyl-1H,1′H-[3,4′-bipyrazol]-5-yl)-3-((r-1,t-2,t-3)-2-hydroxy-3-methoxy-4,4-dimethyl-1,2,3,4-tetrahydronaphthalen-1-yl)urea], below 0.1 µM; as for `CO[C@H]1[C@@H](O)[C@H](NC(=O)Nc2c(C)c(OCC3CCN(C)CC3)nn2-c2ccccc2)c2ccccc2C1(C)C` [Example 87, 1-((r-1,t-2,t-3)-2-hydroxy-3-methoxy-4,4-dimethyl-1,2,3,4-tetrahydronaphthalen-1-yl)-3-(4-methyl-3-((1-methylpiperidin-4-yl)methoxy)-1-phenyl-1H-pyrazol-5-yl)urea], below 0.1 µM. The same measure for `CNC(=O)c1nn(-c2ccccc2)c(NC(=O)N[C@@H]2c3ccc(F)cc3C(C)(C)C[C@H]2O)c1C` [Example 88, 5-(3-((1,2-trans)-6-fluoro-2-hydroxy-4,4-dimethyl-1,2,3,4-tetrahydronaphthalen-1-yl)ureido)-N,4-dimethyl-1-phenyl-1H-pyrazole-3-carboxamide]: below 0.1 µM; for `Cc1c(-c2cnn(C)c2)nn(-c2ccccc2)c1NC(=O)N[C@@H]1c2ccc(F)cc2C(C)(C)C[C@H]1O` [Example 89, 1-(1′,4-dimethyl-1-phenyl-1H,1′H-[3,4′-bipyrazol]-5-yl)-3-((1,2-trans)-6-fluoro-2-hydroxy-4,4-dimethyl-1,2,3,4-tetrahydronaphthalen-1-yl)urea]: below 0.1 µM. As for `Cc1c(-c2ccc(=O)n(C)c2)nn(-c2ccccc2)c1NC(=O)N[C@@H]1c2ccc(F)cc2C(C)(C)C[C@H]1O` [Example 90], the figure is below 0.1 µM. Consider `CNC(=O)c1nn(-c2ccccc2)c(NC(=O)N[C@@H]2c3cc(F)ccc3C(C)(C)C[C@H]2O)c1C` [Example 91, 5-(3-((1,2-trans)-7-fluoro-2-hydroxy-4,4-dimethyl-1,2,3,4-tetrahydronaphthalen-1-yl)ureido)-N,4-dimethyl-1-phenyl-1H-pyrazole-3-carboxamide], for which the IC50 was below 0.1 µM. With `Cc1c(-c2cnn(C)c2)nn(-c2ccccc2)c1NC(=O)N[C@@H]1c2cc(F)ccc2C(C)(C)C[C@H]1O` [Example 92, 1-(1′,4-dimethyl-1-phenyl-1H,1′H-[3,4′-bipyrazol]-5-yl)-3-((1,2-trans)-7-fluoro-2-hydroxy-4,4-dimethyl-1,2,3,4-tetrahydronaphthalen-1-yl)urea], the IC50 was below 0.1 µM.

Take `Cc1c(-c2ccc(=O)n(C)c2)nn(-c2ccccc2)c1NC(=O)N[C@@H]1c2cc(F)ccc2C(C)(C)C[C@H]1O` [Example 93, 1-((1,2-trans)-7-fluoro-2-hydroxy-4,4-dimethyl-1,2,3,4-tetrahydronaphthalen-1-yl)-3-(4-methyl-3-(1-methyl-6-oxo-1,6-dihydropyridin-3-yl)-1-phenyl-1H-pyrazol-5-yl)urea]: the IC50 is below 0.1 µM. The same measure for `COCc1ccc2c(c1)C(NC(=O)Nc1c(C)c(=O)[nH]n1-c1ccccc1)CN(CC(F)(F)F)C2C` (stereo not drawn) [Example 96, 1-(6-(methoxymethyl)-1-methyl-2-(2,2,2-trifluoroethyl)-1,2,3,4-tetrahydroisoquinolin-4-yl)-3-(4-methyl-5-oxo-2-phenyl-2,5-dihydro-1H-pyrazol-3-yl)urea]: below 0.1 µM; for `Cc1nn(-c2ccccc2)c(NC(=O)N[C@@H]2c3cc(CO)ccc3C(C)(C)C[C@H]2O)c1C` [Example 100]: below 0.1 µM. As for `Cc1c(-c2cnn(C)c2)nn(-c2ccccc2)c1NC(=O)N[C@H]1CCCc2cc(F)ccc21` [Example 103, (S)-1-(1′,4-dimethyl-1-phenyl-1H,1′H-[3,4′-bipyrazol]-5-yl)-3-(6-fluoro-1,2,3,4-tetrahydronaphthalen-1-yl)urea], the IC50 is below 0.1 µM. The same measure for `COCc1ccc2c(c1)C(NC(=O)Nc1c(C)c(-c3cnn(C)c3)nn1-c1ccccc1)CN(CC(F)(F)F)C2C` (stereo not drawn) [Example 109, 1-(1′,4-dimethyl-1-phenyl-1H,1′H-[3,4′-bipyrazol]-5-yl)-3-(6-(methoxymethyl)-1-methyl-2-(2,2,2-trifluoroethyl)-1,2,3,4-tetrahydroisoquinolin-4-yl)urea]: below 0.1 µM; for `COCc1ccc2c(c1)C(NC(=O)Nc1c(C)c(C(N)=O)nn1-c1ccccc1)CN(CC(F)(F)F)C2C` (stereo not drawn) [Example 110, 5-(3-(6-(methoxymethyl)-1-methyl-2-(2,2,2-trifluoroethyl)-1,2,3,4-tetrahydroisoquinolin-4-yl)ureido)-4-methyl-1-phenyl-1H-pyrazole-3-carboxamide]: below 0.1 µM; for `COCc1ccc2c(c1)C(NC(=O)Nc1c(C)c(-c3cn(C)cn3)nn1-c1ccccc1)CN(CC(F)(F)F)C2C` (stereo not drawn) [Example 111, 1-(6-(methoxymethyl)-1-methyl-2-(2,2,2-trifluoroethyl)-1,2,3,4-tetrahydroisoquinolin-4-yl)-3-(4-methyl-3-(1-methyl-1H-imidazol-4-yl)-1-phenyl-1H-pyrazol-5-yl)urea]: below 0.1 µM. `Cc1c(-c2cnn(C)c2)nn(-c2ccccc2)c1NC(=O)NC1CCSc2ccc(Br)cc21` (stereo not drawn) [Example 112, 1-(6-bromothiochroman-4-yl)-3-(1′,4-dimethyl-1-phenyl-1H,1′H-[3,4′-bipyrazol]-5-yl)urea]: the IC50 is below 0.1 µM.

Regarding `Cc1c(-c2cnn(C)c2)nn(-c2ccccc2)c1NC(=O)NC1CCS(=O)(=O)c2ccc(Br)cc21` (stereo not drawn) [Example 113, 1-(6-bromo-1,1-dioxidothiochroman-4-yl)-3-(1′,4-dimethyl-1-phenyl-1H,1′H-[3,4′-bipyrazol]-5-yl)urea], the IC50 lay within 0.1 to 1 µM. As for `Cc1c(-c2cnn(C)c2)nn(-c2ccccc2)c1NC(=O)NC1CSCc2ccc(Br)cc21` (stereo not drawn) [Example 114, 1-(6-bromoisothiochroman-4-yl)-3-(1′,4-dimethyl-1-phenyl-1H,1′H-[3,4′-bipyrazol]-5-yl)urea], the figure is below 0.1 µM. The same measure for `Cc1c(-c2cnn(C)c2)nn(-c2ccccc2)c1NC(=O)NC1CS(=O)(=O)Cc2ccc(Br)cc21` (stereo not drawn) [Example 115, 1-(6-bromo-2,2-dioxidoisothiochroman-4-yl)-3-(1′,4-dimethyl-1-phenyl-1H,1′H-[3,4′-bipyrazol]-5-yl)urea]: below 0.1 µM.
